Experimental data reported in US6737383B1, “Herbicidal oxadiazolidines” (priority 1999, dated 2004).

Legend:
bedstraw = assay: Test B pre/postemergence bedstraw; format: in vivo, Galium aparine; details: Preemergence
Method in brief: (§1)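 Response is a visual 0-to-10 score relative to untreated plants, where 0 means no effect and 10 means complete control, taken twelve to sixteen days after application. Treatments went onto soil at planting and onto foliage of 1- to 4-leaf plants, using a surfactant-containing non-phytotoxic solvent.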

blackgrass = assay: Test B pre/postemergence blackgrass; format: in vivo, Alopecurus myosuroides
Method in brief: as §1

surinam grass = assay: Test B pre/postemergence surinam grass; format: in vivo, Brachiaria decumbens
Method in brief: as §1

corn = assay: Test B pre/postemergence corn; format: in vivo, Zea mays; details: for Corn plant response rating: scale of 0 to 10 where 0 is no effect and 10 is complete control
Method in brief: as §1

giant foxtail = assay: Test B pre/postemergence giant foxtail; format: in vivo, Setaria faberii; details: for Giant foxtail plant response rating: scale of 0 to 10 where 0 is no effect and 10 is complete control
Method in brief: as §1

morningglory = assay: Test B pre/postemergence morningglory; format: in vivo, Ipomoea hederacea; details: for Morningglory plant response rating: scale of 0 to 10 where 0 is no effect and 10 is complete control
Method in brief: as §1

pigweed = assay: Test B pre/postemergence pigweed; format: in vivo, Amaranthus retroflexus; details: for Redroot pigweed plant response rating: scale of 0 to 10 where 0 is no effect and 10 is complete control
Method in brief: as §1

rape = assay: Test B pre/postemergence rape; format: in vivo, Brassica napus; details: for Rape plant response rating: scale of 0 to 10 where 0 is no effect and 10 is complete control
Method in brief: as §1

soybean = assay: Test B pre/postemergence soybean; format: in vivo, Glycine max; details: for Soybean plant response rating: scale of 0 to 10 where 0 is no effect and 10 is complete control
Method in brief: as §1

sugar beet = assay: Test B pre/postemergence sugar beet; format: in vivo, Beta vulgaris; details: for Sugarbeets plant response rating: scale of 0 to 10 where 0 is no effect and 10 is complete control
Method in brief: as §1

velvetleaf = assay: Test B pre/postemergence velvetleaf; format: in vivo, Abutilon theophrasti; details: for Velvetleaf plant response rating: scale of 0 to 10 where 0 is no effect and 10 is complete control
Method in brief: as §1

purple nutsedge = assay: Test B pre/postemergence purple nutsedge; format: in vivo, Cyperus rotundus; details: for Nutsedge plant response rating: scale of 0 to 10 where 0 is no effect and 10 is complete control
Method in brief: as §1

rice = assay: Test B flood test rice; format: in vivo, Oryza sativa; details: Pre-emergence
Method in brief: (§2)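 Read-out is a visual response score from 0 (no effect) to 10 (complete control), assigned by comparison with untreated controls. Treatment was applied at the 2-leaf stage, and plants stayed in the greenhouse for twelve to sixteen days before scoring.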

smallflower flatsedge = assay: Test B flood test smallflower flatsedge; format: in vivo, Cyperus difformis; details: Pre-emergence
Method in brief: as §2

duck salad = assay: Test B flood test duck salad; format: in vivo, Heteranthera limosa; details: Pre-emergence
Method in brief: as §2

bamyardgrass = assay: Test B flood test barnyardgrass; format: in vivo, Echinochloa crus-galli; details: Pre-emergence
Method in brief: as §2

[1] = Postemergence, Rate 125 g/ha, scale 0 to 10, 0 is no effect, 10 is complete control
[2] = Preemergence, Rate 62 g/ha, scale 0 to 10 (0 no effect, 10 complete control)
[3] = Preemergence, Rate 250 g/ha, scale of 0 to 10 where 0 is no effect and 10 is complete control
[4] = Preemergence, Rate 500 g/ha, scale of 0 to 10 where 0 is no effect and 10 is complete control
[5] = Rate 62 g/ha, Postemergence, scale of 0 to 10 where 0 is no effect and 10 is complete control
[6] = Rate 250 g/ha, Postemergence, scale of 0 to 10 where 0 is no effect and 10 is complete control
[7] = Rate 500 g/ha, Postemergence, scale 0 to 10, 0 no effect, 10 complete control
[8] = Rate 62 g/ha, flood test species, visual evaluation after twelve to sixteen days
[9] = Rate 125 g/ha, flood test species, scale 0 to 10 where 0 is no effect and 10 is complete control
[10] = Rate 250 g/ha, flood-test species, scale 0 to 10, 0 is no effect, 10 is complete control
[11] = Rate 500 g/ha, flood test species, scale 0 to 10 (0 no effect, 10 complete control)

CCC(CC)n1c(=O)on(C(=O)N(c2ccc(F)cc2F)C(C)C)c1=O [Compound 353]
Plant response rating, Bedstraw (bedstraw; Rate 62 g/ha, scale 0 to 10 (0 no effect, 10 complete control)): 0
Bedstraw plant response rating (0 to 10 scale) (bedstraw; Rate 125 g/ha): 0
Bedstraw plant response rating (bedstraw; Rate 500 g/ha, scale of 0 to 10 where 0 is no effect and 10 is complete control): 3
Plant response rating, Blackgrass (blackgrass; [1]): 4
Plant response rating, Blackgrass (blackgrass; [2]): 2
Blackgrass plant response rating (blackgrass; [3]): 7
Blackgrass plant response rating (blackgrass; [4]): 8
Blackgrass plant response rating (blackgrass; [5]): 0
Plant response rating, Blackgrass (blackgrass; [6]): 4
Plant response rating, Blackgrass (blackgrass; [7]): 9
Plant response rating, B. signalgrass (surinam grass; [1]): 0
Plant response rating, B. signalgrass (surinam grass; [2]): 0
B. signalgrass plant response rating (0 to 10 scale, 0 is no effect, 10 is complete control) (surinam grass; Preemergence, Rate 125 g/ha): 2
B. signalgrass plant response rating (surinam grass; [3]): 5
B. signalgrass plant response rating (surinam grass; [4]): 5
B. signalgrass plant response rating (surinam grass; [5]): 0
Plant response rating, B. signalgrass (surinam grass; [6]): 0
Plant response rating, B. signalgrass (surinam grass; [7]): 0
Plant response rating, Corn (corn; [1]): 0
Plant response rating, Corn (corn; [2]): 0
Corn plant response rating (0 to 10 scale) (corn; Preemergence, Rate 125 g/ha): 3
Corn plant response rating (corn; Preemergence, Rate 250 g/ha): 3
Corn plant response rating (corn; Preemergence, Rate 500 g/ha): 7
Corn plant response rating (corn; Rate 62 g/ha, Postemergence): 0
Plant response rating, Corn (corn; [7]): 0
Plant response rating, Giant foxtail (giant foxtail; [1]): 3
Plant response rating, Giant foxtail (giant foxtail; [2]): 9
Giant foxtail plant response rating (0 to 10 scale) (giant foxtail; Preemergence, Rate 125 g/ha): 10
Giant foxtail plant response rating (giant foxtail; Preemergence, Rate 250 g/ha): 10
Giant foxtail plant response rating (giant foxtail; Preemergence, Rate 500 g/ha): 10
Giant foxtail plant response rating (giant foxtail; Rate 62 g/ha, Postemergence): 0
Plant response rating, Giant foxtail (giant foxtail; [7]): 8
Plant response rating, Morningglory (morningglory; [1]): 3
Plant response rating, Morningglory (morningglory; [2]): 0
Morningglory plant response rating (0 to 10 scale) (morningglory; Preemergence, Rate 125 g/ha): 0
Morningglory plant response rating (morningglory; Preemergence, Rate 250 g/ha): 1
Morningglory plant response rating (morningglory; Preemergence, Rate 500 g/ha): 1
Morningglory plant response rating (morningglory; Rate 62 g/ha, Postemergence): 3
Plant response rating, Morningglory (morningglory; [7]): 10
Plant response rating, Redroot pigweed (pigweed; [1]): 3
Plant response rating, Redroot pigweed (pigweed; [2]): 7
Redroot pigweed plant response rating (0 to 10 scale) (pigweed; Preemergence, Rate 125 g/ha): 10
Redroot pigweed plant response rating (pigweed; Preemergence, Rate 250 g/ha): 10
Redroot pigweed plant response rating (pigweed; Preemergence, Rate 500 g/ha): 10
Redroot pigweed plant response rating (pigweed; Rate 62 g/ha, Postemergence): 2
Plant response rating, Redroot pigweed (pigweed; [7]): 6
Plant response rating, Rape (rape; [1]): 2
Plant response rating, Rape (rape; [2]): 0
Rape plant response rating (0 to 10 scale) (rape; Preemergence, Rate 125 g/ha): 0
Rape plant response rating (rape; Preemergence, Rate 250 g/ha): 1
Rape plant response rating (rape; Preemergence, Rate 500 g/ha): 5
Rape plant response rating (rape; Rate 62 g/ha, Postemergence): 2
Plant response rating, Rape (rape; [7]): 4
Plant response rating, Soybean (soybean; [1]): 4
Plant response rating, Soybean (soybean; [2]): 0
Soybean plant response rating (0 to 10 scale) (soybean; Preemergence, Rate 125 g/ha): 0
Soybean plant response rating (soybean; Preemergence, Rate 250 g/ha): 0
Soybean plant response rating (soybean; Preemergence, Rate 500 g/ha): 0
Soybean plant response rating (soybean; Rate 62 g/ha, Postemergence): 4
Plant response rating, Soybean (soybean; [7]): 6
Plant response rating, Sugarbeets (sugar beet; [1]): 0
Plant response rating, Sugarbeets (sugar beet; [2]): 0
Sugarbeets plant response rating (0 to 10 scale) (sugar beet; Preemergence, Rate 125 g/ha): 2
Sugarbeets plant response rating (sugar beet; Preemergence, Rate 250 g/ha): 2
Sugarbeets plant response rating (sugar beet; Preemergence, Rate 500 g/ha): 4
Sugarbeets plant response rating (sugar beet; Rate 62 g/ha, Postemergence): 0
Plant response rating, Sugarbeets (sugar beet; [7]): 6
Plant response rating, Velvetleaf (velvetleaf; [1]): 0
Plant response rating, Velvetleaf (velvetleaf; [2]): 0
Velvetleaf plant response rating (0 to 10 scale) (velvetleaf; Preemergence, Rate 125 g/ha): 1
Velvetleaf plant response rating (velvetleaf; Preemergence, Rate 250 g/ha): 4
Velvetleaf plant response rating (velvetleaf; Preemergence, Rate 500 g/ha): 6
Velvetleaf plant response rating (velvetleaf; Rate 62 g/ha, Postemergence): 0
Plant response rating, Velvetleaf (velvetleaf; [7]): 2
Plant response rating, Nutsedge (purple nutsedge; [1]): 0
Plant response rating, Nutsedge (purple nutsedge; [2]): 0
Nutsedge plant response rating (0 to 10 scale) (purple nutsedge; Preemergence, Rate 125 g/ha): 0
Nutsedge plant response rating (purple nutsedge; Preemergence, Rate 250 g/ha): 0
Nutsedge plant response rating (purple nutsedge; Preemergence, Rate 500 g/ha): 0
Nutsedge plant response rating (purple nutsedge; Rate 62 g/ha, Postemergence): 0
Plant response rating, Nutsedge (purple nutsedge; [7]): 0
Plant response rating, Rice (0 to 10 scale, 0 is no effect, 10 is complete control) (rice; [8]): 0
Rice plant response rating (rice; [9]): 0
Rice plant response rating (rice; [10]): 0
Rice plant response rating (rice; [11]): 4
Plant response rating, S. Flatsedge (0 to 10 scale, 0 is no effect, 10 is complete control) (smallflower flatsedge; [8]): 0
S. Flatsedge plant response rating (smallflower flatsedge; [9]): 2
S. Flatsedge plant response rating (smallflower flatsedge; [10]): 2
S. Flatsedge plant response rating (smallflower flatsedge; [11]): 7
Plant response rating, Ducksalad (0 to 10 scale, 0 is no effect, 10 is complete control) (duck salad; [8]): 0
Ducksalad plant response rating (duck salad; [9]): 0
Ducksalad plant response rating (duck salad; [10]): 0
Ducksalad plant response rating (duck salad; [11]): 0
Plant response rating, Barnyardgrass (0 to 10 scale, 0 is no effect, 10 is complete control) (bamyardgrass; [8]): 0
Barnyardgrass plant response rating (bamyardgrass; [9]): 0
Barnyardgrass plant response rating (bamyardgrass; [10]): 0
Barnyardgrass plant response rating (bamyardgrass; [11]): 9
